From patent US20220033407A1, “N-(pyridin-2-ylsulfonyl)cyclopropanecarboxamide Derivatives and their Use in the Treatment of Disease” (NOVARTIS AG, priority 2018, published 2022)

Columns and labels:
delF508-CFTR-HRP = target: T1, delF508-CFTR-HRP (Homo sapiens, UniProt P13569, DEL508-508); test: Measurement of delF508-CFTR-HRP surface expression in CFBE41o- cells (HRP luminescence); type: cell-based; settings: for Emax: CFBE41o-, read-out: DelF508-CFTR-HRP Amax %; for EC50: mean of at least two replicates;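 for DelF508-CFTR-HRP Amax %: percent efficacy relative to a reference CFTR corrector compound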
T1 construct: expressed in transfected cells
Outline: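 EC50 derived by logistic regression of triplicate surface-HRP luminescence, plate-normalized to the lowest-concentration median. Doxycycline (500 ng/mL, 48 h) induced delF508-CFTR-HRP in CFBE41o- cells; compounds then applied 24 h at 37° C, 10 μM top, 3-fold over 10 points.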

delF508-CFTR = target: T2, delF508-CFTR (Homo sapiens, UniProt P13569, DEL508-508); test: delF508-CFTR functional activity in primary human bronchial epithelial cells (HBECs), Multi-Transepithelial Clamp Circuit (MTECC-24) assay, equivalent short circuit current; type: cell-based; settings: primary CF HBECs; for MTECC24 CFHBEC-Amax %: relative to reference combination 2 μM 3-(6-(1-(2,2-difluorobenzo[d][1,3]dioxol-5-yl)cyclopropane-1-carboxamido)-3-methylpyridin-2-yl)benzoic acid (24 h) + 0.5 μM N-(2,4-di-tert-butyl-5-hydroxyphenyl)-4-oxo-1,4-dihydroquinoline-3-carboxamide; for EC50: test compound added 24 h before assay, potentiator (S)-3-amino-6-methoxy-N-(3,3,3-trifluoro-2-hydroxy-2-methylpropyl)-5-(trifluoromethyl)picolinamide present at assay, mean of at least two replicates, read-out: MTECC24 CFHBEC-EC50
T2 construct: functional activity of the CFTR channel (Chloride ion transport) in patient derived primary human bronchial epithelial cells; host or cells: patient-derived primary human bronchial epithelial cells (HBECs), delF508-CFTR
From the text: Measurement of delF508-CFTR Functional Activity in Primary Human Bronchial Epithelial Cells (HBECs) Using Multi-Transepithelial Clamp Circuit (MTECC-24) Assay
This assay measures the functional activity of the CFTR channel (Chloride ion transport) in patient derived primary human bronchial epithelial cells with forskolin activation and in the presence of the CFTR corrector wherein the corrector is a compound of the invention and the potentiator is (S)-3-amino-6-methoxy-N-(3,3,3-trifluoro-2-hydroxy-2-methylpropyl)-5-(trifluoromethyl)picolinamide.
Primary human delF508-CFTR bronchial epithelial cells were purchased from Asterand and cultured according to previously established methods (Fulcher et al. (2005) Methods Mol Med 107: 183-206). Briefly, vendor supplied cells were rapidly defrosted and added to a T175 flask in 50 mL growth media (Lonza BEBM media with Lonza BEGM singlequots). Media was replaced after 24 h and then cells were fed every other day until cells were 80-90% confluent, at which point cells were cryopreserved. These P1 vials were thawed at 37° C. as needed and added to T175 flasks in 50 mL growth media at 5×10^5 cells/flask. Media was replaced after 24 h, and then cells were fed every other day until 80-90% confluent. Cells were lifted with 5 mL Accutase at 37° C. for 5 minutes, centrifuged at 1000 rpms for 5 min (300 g), and resuspended in differentiation media (50% BEBM in DMEM, BEGM singlequots, all trans retinoic acid (5×10·8M)). Cells were then counted and cell suspension was added to collagen coated inserts at 3×10^4 cells/insert in 0.15 mL with 0.5 mL differentiation media on the basolateral side.
Apical and basolateral media were replaced on alternate days, and following day 7 (or when confluent plus 2 days), air liquid interface was established for approximately two weeks by removal of apical media. One day prior to use on the MTECC24 system (EP-Devices, EP Design, Belgium), 0.15 mL of warmed (37° C.) PBS was added to the apical surface of the cultures and returned to humidifier (37° C., 5% CO2 incubator) for 30 min before aspirating the apical surface to remove any mucus.
Compound treatments were then prepared. Compound dilutions, typically a 10 point concentration response with 1 in 3 dilution steps, were made in 100% DMSO before dilution 1 in 1000 into differentiation medium with a final DMSO concentration of 0.1% or 0.2% for the study. Compound containing medium was then transferred into the wells of a 24 well plate at 0.5 mL per well and warmed for 30 min in a 37° C. incubator prior to transferring washed inserts into the compound containing plates. Cells were incubated in compound containing medium (basolateral only) for 24 h prior to measurement in the MTECC24 system.
Following 24 hr treatment, compound dilutions were prepared again, diluted 1 in 1000 into 37° C. assay medium (F-12 Coon's modified, 20 mM HEPES pH7.4 with TRIS Base, No FCS or bicarbonate). Cells which were treated for 24 h with test compound were then transferred into plates containing 0.75 mL compound treatment in assay medium (basolateral) and 0.25 mL of the compound containing assay medium was added to the apical surface. The plates were then transferred to the heated plate compartments of the MTECC24 system for 45 min prior to measurements (this can also be done in a non-CO2 37° C. humidified incubator). Basolateral temperature should not exceed 36.5° C. and apical temperature should be approximately 35.5° C.
Modulators were added sequentially as follows while the MTECC24 instrument recorded the equivalent short circuit current (Ieq)
Prior to dilution into F-12 medium the stocks are as follows: Amiloride stock is 10 mM in H2O
Forskolin Stock is 10 mM in 100% DMSO
(S)-3-amino-6-methoxy-N-(3,3,3-trifluoro-2-hydroxy-2-methylpropyl)-5-(trifluoromethyl)picolinamide is 0.5 mM stock in 100% DMSO INH-172 (4-[[4-Oxo-2-thioxo-3-[3-trifluoromethyl)phenyl]-5-thiazolidinylidene]methyl]benzoic acid) stock is 30 mM in 100% DMSO […]

T1 sequence (P13569 with tags, fused parts or gaps DEL508-508): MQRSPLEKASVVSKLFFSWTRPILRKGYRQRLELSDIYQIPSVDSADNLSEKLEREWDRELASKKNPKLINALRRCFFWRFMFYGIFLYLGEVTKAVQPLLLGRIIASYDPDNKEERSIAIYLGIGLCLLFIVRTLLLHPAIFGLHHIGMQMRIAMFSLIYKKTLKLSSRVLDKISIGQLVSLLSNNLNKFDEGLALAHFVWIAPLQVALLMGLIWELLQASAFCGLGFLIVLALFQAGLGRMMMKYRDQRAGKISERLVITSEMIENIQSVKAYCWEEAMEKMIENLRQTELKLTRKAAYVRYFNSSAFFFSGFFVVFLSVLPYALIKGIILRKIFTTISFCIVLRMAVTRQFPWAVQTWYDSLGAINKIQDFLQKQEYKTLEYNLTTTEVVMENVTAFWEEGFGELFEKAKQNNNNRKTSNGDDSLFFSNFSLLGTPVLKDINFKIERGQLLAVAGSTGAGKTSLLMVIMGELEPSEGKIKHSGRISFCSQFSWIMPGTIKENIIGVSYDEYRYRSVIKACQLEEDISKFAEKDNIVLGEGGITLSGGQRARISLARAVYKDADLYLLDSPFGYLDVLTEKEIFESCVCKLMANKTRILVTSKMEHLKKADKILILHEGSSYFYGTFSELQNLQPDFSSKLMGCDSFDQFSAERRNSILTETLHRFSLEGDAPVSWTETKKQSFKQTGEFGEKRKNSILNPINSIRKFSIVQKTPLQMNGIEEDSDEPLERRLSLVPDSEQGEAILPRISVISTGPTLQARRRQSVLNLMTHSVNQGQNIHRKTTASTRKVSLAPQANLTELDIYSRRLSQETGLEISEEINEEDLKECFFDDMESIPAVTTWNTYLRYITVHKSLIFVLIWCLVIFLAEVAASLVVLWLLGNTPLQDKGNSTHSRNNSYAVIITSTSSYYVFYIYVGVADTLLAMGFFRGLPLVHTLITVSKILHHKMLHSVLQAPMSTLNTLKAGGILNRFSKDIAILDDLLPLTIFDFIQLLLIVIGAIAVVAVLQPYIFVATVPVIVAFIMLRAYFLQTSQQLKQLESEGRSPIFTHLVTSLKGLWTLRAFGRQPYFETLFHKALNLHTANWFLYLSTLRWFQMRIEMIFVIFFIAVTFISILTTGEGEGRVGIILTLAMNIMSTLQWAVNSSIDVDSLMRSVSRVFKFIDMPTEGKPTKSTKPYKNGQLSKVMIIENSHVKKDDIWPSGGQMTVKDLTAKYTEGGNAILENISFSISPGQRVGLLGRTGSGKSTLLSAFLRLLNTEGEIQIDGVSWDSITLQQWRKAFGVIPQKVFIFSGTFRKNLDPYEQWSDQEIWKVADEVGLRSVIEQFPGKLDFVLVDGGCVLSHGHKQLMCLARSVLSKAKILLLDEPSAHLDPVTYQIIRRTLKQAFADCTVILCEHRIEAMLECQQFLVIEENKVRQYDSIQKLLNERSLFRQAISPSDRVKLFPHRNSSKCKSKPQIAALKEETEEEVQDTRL
T2 sequence (P13569 with tags, fused parts or gaps DEL508-508): as above

Emax (delF508-CFTR-HRP) [%] | EC50 (delF508-CFTR-HRP) [nM] | MTECC24 CFHBEC-Amax % (delF508-CFTR) [%] | EC50 (delF508-CFTR) [nM] | SMILES
371 | 2480 | 57 | 6 | Cc1ccc(-c2cccc(OC(F)(F)F)c2)c(OC2(C(=O)NS(=O)(=O)c3cccc(N4CC(C)(O)C4)n3)CC2)c1 [Example 5-8, N-((6-(3-Hydroxy-3-methylazetidin-1-yl)pyridin-2-yl)sulfonyl)-1-((4-methyl-3′-(trifluoromethoxy)-[1,1′-biphenyl]-2-yl)oxy)cyclopropane-1-carboxamide]
813 | 2860 | 89 | 3 | Cc1ccc(C2CCCCC2)c(OC2(C(=O)NS(=O)(=O)c3cccc(NC[C@@H](C)O)n3)CC2)c1 [Example 2-46, (R)-1-(2-cyclohexyl-5-methylphenoxy)-N-((6-((2-hydroxypropyl)amino)pyridin-2-yl)sulfonyl)cyclopropane-1-carboxamide]
380 | 2660 | 57 | 57 | Cc1ccc(C2CCC(F)(F)CC2)c(OC2(C(=O)NS(=O)(=O)c3cccc(N4CC(C)(NC(=O)OC(C)(C)C)C4)n3)CC2)c1 [Example 3-6, Tert-butyl (1-(6-(N-(1-(2-(4,4-difluorocyclohexyl)-5-methylphenoxy)cyclopropane-1-carbonyl)sulfamoyl)pyridin-2-yl)-3-methylazetidin-3-yl)carbamate]
579 | 1330 | 160.7 | 776 | O=C(NS(=O)(=O)c1cccc(N2CC[C@H](O)C2)n1)C1(Oc2cc(Cl)ccc2N2CCC3(CCC3)CC2)CC1 [Example 9-12, (S)-1-(5-Chloro-2-(7-azaspiro[3.5]nonan-7-yl)phenoxy)-N-((6-(3-hydroxypyrrolidin-1-yl)pyridin-2-yl)sulfonyl)cyclopropanecarboxamide]
165 | 2380 | 46 | 6 | Cc1ccc(C2(C(F)(F)F)CC2)c(OC2(C(=O)NS(=O)(=O)c3cccc(N)n3)CCCC2)c1 [Example 1-8, N-((6-Aminopyridin-2-yl)sulfonyl)-1-(5-methyl-2-(1-(trifluoromethyl)cyclopropyl)phenoxy)cyclopentane-1-carboxamide]
746 | 460 | 161.6 | 182 | CC1(C)CCN(c2ccc(Cl)cc2OC2(C(=O)NS(=O)(=O)c3cccc(N4CCC(O)(c5cccc(C(F)(F)F)c5)CC4)n3)CC2)CC1 [Example 10-2, 1-(5-chloro-2-(4,4-dimethylpiperidin-1-yl)phenoxy)-N-((6-(4-hydroxy-4-(3-(trifluoromethyl)phenyl)piperidin-1-yl)pyridin-2-yl)sulfonyl)cyclopropanecarboxamide]
113 | 3460 | 48 | 9 | Cc1ccc(C2(C)CC2)c(OC2(C(=O)NS(=O)(=O)c3cccc(NC[C@H](C)O)n3)CC2)c1 [Example 4-16, (S)-N-((6-((2-Hydroxypropyl)amino)pyridin-2-yl)sulfonyl)-1-(5-methyl-2-(1-methylcyclopropyl)phenoxy)cyclopropane-1-carboxamide]
109 | 2830 | 54 | 40 | Cc1ccc(C2CCCCC2)c(OC2(C(=O)NS(=O)(=O)c3nc(N)ccc3F)CC2)c1 [Example 1-7, N-((6-Amino-3-fluoropyridin-2-yl)sulfony)-1-(2-cyclohexyl-5-methylphenoxy)cyclopropane-1-carboxamide]
374 | 3280 | 71 | 12 | Cc1ccc(CC(C)C)c(OC2(C(=O)NS(=O)(=O)c3cccc(NC[C@@H](C)O)n3)CC2)c1 [Example 4-10, (R)-N-((6-((2-Hydroxypropyl)amino)pyridin-2-yl)sulfonyl)-1-(2-isobutyl-5-methylphenoxy)cyclopropane-1-carboxamide]
286 | 2590 | 77 | 20 | Cc1ccc(C2CCCCC2)c(OC2(C(=O)NS(=O)(=O)c3cccc(N4CCC(C)(NC(=O)NC5CC5)CC4)n3)CC2)c1 [Example 2-11, 1-(2-Cyclohexyl-5-methylphenoxy)-N-((6-(4-(3-cyclopropylureido)-4-methylpiperidin-1-yl)pyridin-2-yl)sulfonyl)cyclopropanecarboxamide]
647 | 1060 | 206.5 | 294 | O=C(NS(=O)(=O)c1cccc(N2CC[C@H](O)C2)n1)C1(Oc2cc(Cl)ccc2N2CC3(CCCCC3)C2)CC1 [Example 9-1, (S)-1-(5-chloro-2-(2-azaspiro[3.5]nonan-2-yl)phenoxy)-N-((6-(3-hydroxypyrrolidin-1-yl)pyridin-2-yl)sulfonyl)cyclopropanecarboxamide]
462 | 750 | 103.9 | 80 | CC1(C)CCN(c2ccc(Cl)cc2OC2(C(=O)NS(=O)(=O)c3cccc(N4CCC(O)(C(C)(C)C)CC4)n3)CC2)CC1 [Example 10-6, N-((6-(4-(tert-butyl)-4-hydroxypiperidin-1-yl)pyridin-2-yl)sulfonyl)-1-(5-chloro-2-(4,4-dimethylpiperidin-1-yl)phenoxy)cyclopropanecarboxamide]
279 | 700 | 170.7 | 454 | O=C(NS(=O)(=O)c1cccc(N2CC[C@H](O)C2)n1)C1(Oc2cc(Cl)ccc2N2CCC3(CCCCC3)CC2)CC1 [Example 9-14, (S)-1-(5-Chloro-2-(3-azaspiro[5.5]undecan-3-yl)phenoxy)-N-((6-(3-hydroxypyrrolidin-1-yl)pyridin-2-yl)sulfonyl)cyclopropanecarboxamide]
297 | 4030 | 84 | 226 | Cc1ccc([C@H]2CC[C@H](F)CC2)c(OC2(C(=O)NS(=O)(=O)c3cccc(N4CC(C)(O)C4)n3)CC2)c1 (single isomer, unassigned) [Example 4-1, 1-(2-(Trans-4-fluorocyclohexyl)-5-methylphenoxy)-N-((6-(3-hydroxy-3-methylazetidin-1-yl)pyridin-2-yl)sulfonyl)cyclopropane-1-carboxamide]
156 | 4030 | 55 | 76 | Cc1ccc(C2(C(F)(F)F)CC2)c(OC2(C(=O)NS(=O)(=O)c3cccc(N4CC(C)(O)C4)n3)CC2)c1 [Example 4-17, N-((6-(3-Hydroxy-3-methylazetidin-1-yl)pyridin-2-yl)sulfonyl)-1-(5-methyl-2-(1-(trifluoromethyl)cyclopropy)phenoxy)cyclopropane-1-carboxamide]
